Source: ChEMBL document CHEMBL1201862, “PubChem BioAssay data set” (2004)
“And” between values parts separate entries of the source, which are not always exact repeats. Equal values may be shown once.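 Interpolation was linear, between the two tested concentrations surrounding the appropriate level; five concentrations were tested over 48 hours in 96-well plates. GI50 = concentration required for 50% inhibition of growth.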 The source made the active and inactive calls. Cut-off read from the data, not from the text of the source: active = GI50 up to about 1.1 µM and inactive = higher.

Experiments:
Assay in all cases: growth of human tumour cells (NCI), 48 h
[1] = test system: 786-0
[2] = test system: A498
[3] = test system: A549
[4] = test system: ACHN
[5] = test system: BT-549
[6] = test system: CAKI-1
[7] = test system: CCRF-CEM
[8] = test system: COLO 205
[9] = test system: DU-145
[10] = test system: EKVX
[11] = test system: HCC 2998
[12] = test system: HCT-116
[13] = test system: HCT-15
[14] = test system: HL-60
[15] = test system: HOP-62
[16] = test system: HOP-92
[17] = test system: HT-29
[18] = test system: Hs-578T
[19] = test system: IGROV-1
[20] = test system: K562
[21] = test system: KM12
[22] = test system: LOX IMVI
[23] = test system: M14
[24] = test system: MCF7
[25] = test system: MDA-MB-231
[26] = test system: MDA-MB-435
[27] = test system: MDA-N
[28] = test system: MOLT-4
[29] = test system: Malme-3M
[30] = test system: NCI-H226
[31] = test system: NCI-H23
[32] = test system: NCI-H460
[33] = test system: NCI-H522
[34] = test system: NCI/ADR-RES
[35] = test system: OVCAR-3
[36] = test system: OVCAR-4
[37] = test system: OVCAR-5
[38] = test system: OVCAR-8
[39] = test system: PC-3
[40] = test system: RPMI-8226
[41] = test system: RXF 393
[42] = test system: SF-268
[43] = test system: SF-295
[44] = test system: SK-MEL-28
[45] = test system: SK-MEL-2
[46] = test system: SK-MEL-5
[47] = test system: SK-OV-3
[48] = test system: SN12C
[49] = test system: SNB-19
[50] = test system: SNB-75
[51] = test system: SR
[52] = test system: SW-620
[53] = test system: T47D
[54] = test system: TK-10
[55] = test system: U-251
[56] = test system: UACC-257
[57] = test system: UACC-62
[58] = test system: UO-31
[59] = test system: SF-539

## CNc1c2cccc(C)c2nc2c(C(=O)NCCN(C)C)cccc12
[1]
  GI50: 104 nM (active)
[2]
  GI50: 213 nM (active)
[3]
  GI50: 34 nM (active)
[4]
  GI50: < 24 nM (active)
[5]
  GI50: 1.04 µM (active)
[6]
  GI50: < 34.4 nM (active)
[7]
  GI50: 37.4 nM (active)
[8]
  GI50: 42.3 nM (active)
[9]
  GI50: 94.6 nM (active)
[10]
  GI50: 151 nM (active)
[11]
  GI50: 32.2 nM (active)
[12]
  GI50: 37.7 nM (active)
[13]
  GI50: 0.115 µM
[14]
  GI50: 84.7 nM (active)
[15]
  GI50: 164 nM (active)
[16]
  GI50: 122 nM (active)
[17]
  GI50: < 19.7 nM (active)
[18]
  GI50: 95.7 nM (active)
[19]
  GI50: 48.3 nM (active)
[20]
  GI50: 24.9 nM (active)
[21]
  GI50: 127 nM (active)
[22]
  GI50: 112 nM (active)
[23]
  GI50: 207 nM (active)
[24]
  GI50: < 45 nM (active)
[25]
  GI50: < 49.8 nM (active)
[26]
  GI50: 152 nM (active)
[27]
  GI50: 84.1 nM (active)
[28]
  GI50: < 20.8 nM (active)
[29]
  GI50: 169 nM (active)
[30]
  GI50: 116 nM (active)
[31]
  GI50: 107 nM (active)
[32]
  GI50: 43.5 nM (active)
[33]
  GI50: < 10 nM (active)
[34]
  GI50: 265 nM (active)
[35]
  GI50: 214 nM (active)
[36]
  GI50: < 10 nM (active)
[37]
  GI50: 162 nM (active)
[38]
  GI50: 70 nM (active)
[39]
  GI50: 158 nM (active)
[40]
  GI50: 60.4 nM (active)
[41]
  GI50: 71.6 nM (active)
[42]
  GI50: 44.5 nM (active)
[43]
  GI50: 58.6 nM (active)
[44]
  GI50: 0.45 µM (active)
[45]
  GI50: 309 nM (active)
[46]
  GI50: 180 nM (active)
[47]
  GI50: 0.252 µM (active)
[48]
  GI50: 28.2 nM (active)
[49]
  GI50: 80.5 nM (active)
[50]
  GI50: 51 nM (active)
[51]
  GI50: < 28.8 nM (active)
[52]
  GI50: < 28.8 nM (active)
[53]
  GI50: 162 nM (active)
[54]
  GI50: 128 nM (active)
[55]
  GI50: 0.149 µM (active)
[56]
  GI50: 211 nM (active)
[57]
  GI50: 167 nM (active)
[58]
  GI50: 200 nM (active)

## COC(=O)c1ccc(NC(=O)O/N=C(\Cl)C(C)C)cc1
[1]
  GI50: 2030 nM (inactive)
[2]
  GI50: 18400 nM (inactive)
[3]
  GI50: 19500 nM (inactive)
[4]
  GI50: 1740 nM (inactive)
[5]
  GI50: 2.67 µM (inactive)
[6]
  GI50: 1690 nM (inactive)
[7]
  GI50: 466 nM (active)
[8]
  GI50: 1940 nM (inactive)
[9]
  GI50: 18500 nM (inactive)
[10]
  GI50: 3220 nM (inactive)
[11]
  GI50: 14700 nM (inactive)
[12]
  GI50: 5610 nM (inactive)
[13]
  GI50: 1.83 µM
[14]
  GI50: 1360 nM (inactive)
[15]
  GI50: 18700 nM (inactive)
[16]
  GI50: 1810 nM (inactive)
[17]
  GI50: 4310 nM (inactive)
[18]
  GI50: 10800 nM (inactive)
[19]
  GI50: 13900 nM (inactive)
[20]
  GI50: 1300 nM (inactive)
[21]
  GI50: 15100 nM (inactive)
[22]
  GI50: 1740 nM (inactive)
[23]
  GI50: 2990 nM (inactive)
[24]
  GI50: 5700 nM (inactive)
[25]
  GI50: 7080 nM (inactive)
[26]
  GI50: 11300 nM (inactive)
[27]
  GI50: 8890 nM (inactive)
[28]
  GI50: 1790 nM (inactive)
[29]
  GI50: 1560 nM (inactive)
[30]
  GI50: 18900 nM (inactive)
[31]
  GI50: 17100 nM (inactive)
[32]
  GI50: 20900 nM (inactive)
[33]
  GI50: 320 nM (active)
[34]
  GI50: 5710 nM (inactive)
[35]
  GI50: 1970 nM (inactive)
[36]
  GI50: 18100 nM (inactive)
[37]
  GI50: 17100 nM (inactive)
[38]
  GI50: 14000 nM (inactive)
[39]
  GI50: 17300 nM (inactive)
[40]
  GI50: 1830 nM (inactive)
[41]
  GI50: 6210 nM (inactive)
[42]
  GI50: 26200 nM (inactive)
[43]
  GI50: 17700 nM (inactive)
[44]
  GI50: 4.84 µM (inactive)
[45]
  GI50: 16800 nM (inactive)
[46]
  GI50: 4530 nM (inactive)
[47]
  GI50: 17.8 µM (inactive)
[48]
  GI50: 6190 nM (inactive)
[49]
  GI50: 16900 nM (inactive)
[50]
  GI50: 7780 nM (inactive)
[51]
  GI50: 1180 nM (inactive)
[52]
  GI50: 1930 nM (inactive)
[53]
  GI50: 2000 nM (inactive)
[54]
  GI50: 3050 nM (inactive)
[55]
  GI50: 16.6 µM (inactive)
[56]
  GI50: 15200 nM (inactive)
[57]
  GI50: 13100 nM (inactive)
[58]
  GI50: 15400 nM (inactive)

## COc1ccc2[nH]cc([C@@H]3C4CCC(C4)[C@H]3NCc3cccc(CN[C@H]4C5CCC(C5)[C@@H]4c4c[nH]c5ccc(OC)cc45)c3)c2c1
[1]
  GI50: 731 nM (active) and 708 nM (active)
[2]
  GI50: 1.82 µM (inactive) and 1.78 µM (inactive)
[3]
  GI50: 1.46 µM (inactive) and 1.61 µM (inactive)
[4]
  GI50: 1.76 µM (inactive) and 1.16 µM (inactive)
[5]
  GI50: 1.69 µM (inactive) and 1.62 µM (inactive)
[6]
  GI50: 1.6 µM (inactive) and 1.79 µM (inactive)
[7]
  GI50: 366 nM (active) and 352 nM (active)
[8]
  GI50: 401 nM (active) and 577 nM (active)
[9]
  GI50: 1.67 µM (inactive) and 1.68 µM (inactive)
[10]
  GI50: 1.51 µM (inactive) and 1.52 µM (inactive)
[11]
  GI50: 339 nM (active) and 256 nM (active)
[12]
  GI50: 766 nM (active) and 678 nM (active)
[13]
  GI50: 0.791 µM and 0.998 µM
[14]
  GI50: 214 nM (active) and 191 nM (active)
[15]
  GI50: 1.62 µM (inactive) and 1.6 µM (inactive)
[16]
  GI50: 1.1 µM (active) and 1.31 µM (inactive)
[17]
  GI50: 230 nM (active) and 218 nM (active)
[18]
  GI50: 1.71 µM (inactive) and 1.5 µM (inactive)
[19]
  GI50: 1.42 µM (inactive) and 1.58 µM (inactive)
[20]
  GI50: 228 nM (active) and 178 nM (active)
[21]
  GI50: 463 nM (active) and 643 nM (active)
[22]
  GI50: 244 nM (active) and 235 nM (active)
[23]
  GI50: 640 nM (active) and 600 nM (active)
[24]
  GI50: 1.5 µM (inactive) and 1.01 µM (active)
[25]
  GI50: 1.44 µM (inactive) and 1.2 µM (inactive)
[26]
  GI50: 520 nM (active) and 733 nM (active)
[27]
  GI50: 1.15 µM (inactive) and 933 nM (active)
[28]
  GI50: 577 nM (active) and 467 nM (active)
[29]
  GI50: 1.86 µM (inactive) and 1.88 µM (inactive)
[30]
  GI50: 2.01 µM (inactive) and 1.91 µM (inactive)
[31]
  GI50: 1.75 µM (inactive) and 1.53 µM (inactive)
[32]
  GI50: 340 nM (active) and 237 nM (active)
[33]
  GI50: 1.5 µM (inactive) and 1.17 µM (inactive)
[34]
  GI50: 1.55 µM (inactive) and 1.68 µM (inactive)
[35]
  GI50: 1.65 µM (inactive) and 1.54 µM (inactive)
[36]
  GI50: 1.37 µM (inactive) and 1.32 µM (inactive)
[37]
  GI50: 1.55 µM (inactive) and 1.71 µM (inactive)
[38]
  GI50: 891 nM (active) and 998 nM (active)
[39]
  GI50: 1.29 µM (inactive) and 1.46 µM (inactive)
[40]
  GI50: 531 nM (active) and 369 nM (active)
[41]
  GI50: 1.36 µM (inactive) and 1.66 µM (inactive)
[42]
  GI50: 1.53 µM (inactive) and 1.47 µM (inactive)
[43]
  GI50: 1.45 µM (inactive) and 1.66 µM (inactive)
[59]
  GI50: 1 µM (active) and 1.73 µM (inactive)
[45]
  GI50: 1.59 µM (inactive) and 1.55 µM (inactive)
[46]
  GI50: 1.62 µM (inactive) and 1.55 µM (inactive)
[48]
  GI50: 1.1 µM (active) and 1.51 µM (inactive)
[49]
  GI50: 1.53 µM (inactive) and 1.65 µM (inactive)
[50]
  GI50: 1.26 µM (inactive) and 1.22 µM (inactive)
[51]
  GI50: 231 nM (active) and 250 nM (active)
[52]
  GI50: 238 nM (active) and 384 nM (active)
[53]
  GI50: 1.72 µM (inactive) and 1.99 µM (inactive)
[54]
  GI50: 1.63 µM (inactive) and 1.51 µM (inactive)
[56]
  GI50: 1.38 µM (inactive) and 1.64 µM (inactive)
[57]
  GI50: 1.8 µM (inactive) and 1.75 µM (inactive)
[58]
  GI50: 1.36 µM (inactive) and 1.52 µM (inactive)
